Reference: US12667557B2, “Method for treating EGFR-TKI-resistant non-small cell lung cancer by administration of anti-HER3 antibody-drug conjugate” (priority 2017, dated 2026)

What was measured:
topoisomerase I = molecular target: T1, topoisomerase I (Homo sapiens, UniProt P11387); conditions: Ogitani Y. et al., Clinical Cancer Research, 2016; 22(20):5097-5108; cited from earlier work
T1 sequence (P11387 1-765): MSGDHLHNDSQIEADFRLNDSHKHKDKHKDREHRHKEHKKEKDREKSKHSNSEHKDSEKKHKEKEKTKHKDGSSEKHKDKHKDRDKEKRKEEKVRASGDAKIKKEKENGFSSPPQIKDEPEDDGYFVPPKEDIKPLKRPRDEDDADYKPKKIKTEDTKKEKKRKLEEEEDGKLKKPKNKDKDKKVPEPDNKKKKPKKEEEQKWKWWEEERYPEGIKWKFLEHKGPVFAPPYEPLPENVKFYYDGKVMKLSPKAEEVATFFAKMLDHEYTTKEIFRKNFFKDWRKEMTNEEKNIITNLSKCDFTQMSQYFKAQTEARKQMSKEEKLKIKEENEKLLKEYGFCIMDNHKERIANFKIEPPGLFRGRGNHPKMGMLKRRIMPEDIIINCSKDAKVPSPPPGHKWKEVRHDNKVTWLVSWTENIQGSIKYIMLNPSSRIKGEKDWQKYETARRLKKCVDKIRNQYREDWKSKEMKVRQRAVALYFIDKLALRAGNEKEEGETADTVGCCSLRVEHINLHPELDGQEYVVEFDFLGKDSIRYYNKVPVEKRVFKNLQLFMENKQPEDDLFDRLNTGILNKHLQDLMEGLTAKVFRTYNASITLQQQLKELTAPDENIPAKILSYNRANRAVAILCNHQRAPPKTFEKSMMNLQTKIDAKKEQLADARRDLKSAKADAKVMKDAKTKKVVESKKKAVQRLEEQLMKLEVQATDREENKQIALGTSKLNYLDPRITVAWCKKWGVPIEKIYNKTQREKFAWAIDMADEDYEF

cell strain HCC827GR5 [1] = experiment: Cell proliferation suppressing activity (CellTiter Glo) against cell strain HCC827GR5; format: cell-based, human; conditions: 7th day of treatment
Description: Cell strain HCC827GR5 was cultured in a medium obtained by adding gefitinib at a final concentration of 1 μM into the aforementioned medium.
Cell strain HCC827GR5 was cultured in a medium obtained by adding gefitinib at a final concentration of 1 μM into RPMI1640 medium (manufactured by Sigma-Aldrich Corp.) containing R10 medium (10% fetal bovine serum and 1% penicillin-streptomycin B (manufactured by Wako Pure Chemical Industries, Ltd.)). After cell strain HCC827GR5 was cultured, the cells were detached by trypsin treatment and then collected. The number of cells in the cell suspension was measured, and the cells were suspended in RPMI1640 medium containing 10% fetal bovine serum. The suspension was adjusted to have a concentration of 100,000 cells/mL. 50 μL of each cell suspension was added to each well of SUMILON 96-well plate (manufactured by Sumitomo Bakelite Co., Ltd.) (5,000 cells/well), and culture was carried out. […] On the 7th day from the initiation of treatment, 50 μL of CellTiter Glo (manufactured by Promega Corp.) was added to each well and then the culture system was stirred for 2 minutes with a plate mixer. The plate was left to stand for 30 minutes under light-shielded conditions. An aliquot of 120 μL was taken from each well and was transferred onto a black microplate, and the luminescence values were measured with a luminometer.

[2] = system: cell strain HCC827GR5 transplanted in nude mice; experiment: Antitumor effect on cell strain HCC827GR5 transplanted in nude mice; format: in vivo, nude mice (BALB/cAJcl-nu/nu); conditions: for Estimated tumor volume Average value: HER3-ADC (1) 10 mg/kg i.p. once a week, erlotinib 25 mg/kg oral six times a week; for Tumor growth inhibition ratio (%): compared with the control group, HER3-ADC (1) 10 mg/kg i.p., erlotinib 25 mg/kg oral
Description: Cell strain HCC827GR5 was cultured in RPMI1640 medium (manufactured by Sigma-Aldrich Corp.) containing R10 medium (10% fetal bovine serum and 1% penicillin-streptomycin B (manufactured by Wako Pure Chemical Industries, Ltd.)) and erlotinib at a final concentration of 1 μM, subsequently the cells were detached by trypsin treatment and then collected. The number of cells in the cell suspension was measured, and the cells were suspended in R10 medium. The suspension was adjusted to have a concentration of 75,000,000 cells/mL. 100 μL of the cell suspension thus prepared (7,500,000 cells) was transplanted subcutaneously into the ventral region of 6-week old female nude mice (BALB/cAJcl-nu/nu), and then after 7 days from tumor transplantation, at which the average value of the estimated […] tumor volume of the transplanted tumors became […], grouping was carried out. Then, drug administration was initiated (day 0). HER3-ADC (1) was dissolved in phosphate buffer saline (PBS), and the solution was adjusted to have a concentration of 1 mg/mL. Erlotinib was dissolved in a hydroxypropylmethyl cellulose (HPMC) solution, and the solution was adjusted to have a concentration of 2.75 mg/mL. To the single-agent treatment groups of each drug, from day 0 to day 49 at the maximum, prepared HER3-ADC (1) was administered intraperitoneally once a week (7 times in total) at a dose of 200 μL/mouse (10 mg/kg), and prepared erlotinib was administered orally six times a week (19 in total) at a dose of 0.18 mL/mouse (25 mg/kg). On the other hand, to the combination treatment group, HER3-ADC (1) and erlotinib were administered from day 0 at the same dose in the same schedule as those of the single-agent treatment groups. A control group, which was not subjected to administration, was also established. For all of the groups, ten mice were used per group. After the initiation of administration, the tumor diameters (major axis and minor axis) were measured twice a week (on days 0, 3, 7, 10, 14, 17, 21, 24, 28, 31, 35, 38, 41, 45, and 49), and the estimated tumor volumes in each group were calculated according to the following formula. Subsequently, the average value of the estimated tumor volume for each group was calculated. Estimated tumor volume (Volume, mm^3)=major axis (mm)×minor axis (mm)^2÷2
Furthermore, the tumor growth inhibition ratio of each group compared with the control group was calculated according to the following formula. Tumor growth inhibition ratio (%)=100−(average value of estimated tumor volume of treatment group÷average value of estimated tumor volume of control group×100)
From the viewpoint of animal ethics, the measurement for the control and erlotinib single-agent treatment groups was terminated at the 21st day since the estimated tumor volume reached 1,200 to 1,500 mm^3. Along with this, the calculation of the tumor growth inhibition ratio (%) was made up to day 21.

cell strain HCC827GR5 [3] = conditions: reported in K. Yonesaka et al., Oncogene (2016) 35, 878-886; cited from earlier work
cell strain PC9 = experiment: Cell proliferation suppressing activity of osimertinib against cell strain PC9; format: cell-based, human; conditions: 0.01 μM or higher concentrations of osimertinib; 3rd day of treatment
Description: (§1) Cell strains PC9 and PC9AZDR7 were cultured in RPMI1640 medium (manufactured by Sigma-Aldrich Corp.) containing 10% fetal bovine serum and 1% penicillin-streptomycin B (manufactured by Wako Pure Chemical Industries, Ltd.). PC9AZDR7 was cultured with 100 nM osimertinib added to the medium. After cell strains PC9 and PC9AZDR7 were cultured, the cells were detached by trypsin treatment and then collected. […] Subsequently, 50 μL of each cell suspension was added into each well of SUMILON 96-well plate (manufactured by Sumitomo Bakelite Co., Ltd.) (10,000 cells/well), and culture was carried out. One day after the initiation of culture, osimertinib dilutions, each of which was prepared to have one of various concentrations, or as a negative control, RPMI-1640 medium not containing any drug was added, and culture was carried out. […] The plate was left to stand for 30 minutes under light-shielded conditions. […] The cell proliferation suppressing activity (% of control) of each drug was calculated using the following formula. % of Control=(Average luminescence value in specimen-added wells÷average luminescence value in negative control wells)×100

cell strain PC9AZDR7 = experiment: Cell proliferation suppressing activity of osimertinib against cell strain PC9AZDR7; format: cell-based, human; conditions: 1 μM or lower concentrations of osimertinib; 3rd day of treatment
Description: as §1

[4] = system: cell strain PC9AZDR7 transplanted in nude mice; experiment: Antitumor effect of combination of HER3-ADC (1) and osimertinib on cell strain PC9AZDR7 transplanted in nude mice; format: in vivo, nude mice (BALB/cAJcl-nu/nu); conditions: for Estimated tumor volume Average value: HER3-ADC (1) 1 mg/kg i.p. on Day 1, osimertinib 1 mg/kg oral Days 1-5, 8-12, 15-19; for Tumor growth inhibition ratio (%): compared with the control group, HER3-ADC (1) 1 mg/kg i.p., osimertinib 1 mg/kg oral
Description: Cell strain PC9AZDR7 was cultured in RPMI1640 medium (manufactured by Sigma-Aldrich Corp.) containing 10% fetal bovine serum and 1% penicillin-streptomycin B (manufactured by Wako Pure Chemical Industries, Ltd.) and 100 nM osimertinib. After cell strain PC9AZDR7 was cultured, the cells were detached by trypsin treatment and then collected. […] From the next day of grouping (1st day), drug administration was initiated. […] As a control group, a group not receiving any administration was established. […] After the initiation of administration, the tumor diameters (major axis and minor axis) were measured twice a week, and the estimated tumor volume in each group was calculated according to the following formula. Subsequently, the average value of the estimated tumor volume for each group was calculated. […] The tumor growth inhibition ratio of each group compared with the control group was calculated using the following formula.

## CC[C@@]1(O)C(=O)OCc2c1cc1n(c2=O)Cc2c-1nc1cc(F)c(C)c3c1c2[C@@H](NC(=O)CO)CC3
Topoisomerase I
  topoisomerase I inhibitory activity: confirmed to have a topoisomerase I inhibitory activity

## C#Cc1cccc(Nc2ncnc3cc(OCCOC)c(OCCOC)cc23)c1 [Erlotinib, erlotinib]
Cell strain HCC827GR5 [1]; 1 μg/mL of erlotinib (so in the source)
  cell proliferation suppressing activity (% Control): 69.2%
Cell strain HCC827GR5 [1]; 3.3 μg/mL of erlotinib (so in the source)
  cell proliferation suppressing activity (% Control): 52.6%
Cell strain HCC827GR5 [1]; 10 μg/mL of erlotinib (so in the source)
  cell proliferation suppressing activity (% Control): 31.7%
[2]; Day 0
  Estimated tumor volume Average value: 124.5 mm^3
  Tumor growth inhibition ratio (%): 2.7%
[2]; Day 3
  Estimated tumor volume Average value: 189.7 mm^3
  Tumor growth inhibition ratio (%): 22.0%
[2]; Day 7
  Estimated tumor volume Average value: 347.5 mm^3
  Tumor growth inhibition ratio (%): 26.0%
[2]; Day 10
  Estimated tumor volume Average value: 420.0 mm^3
  Tumor growth inhibition ratio (%): 29.1%
[2]; Day 14
  Estimated tumor volume Average value: 747.8 mm^3
  Tumor growth inhibition ratio (%): 14.5%
[2]; Day 17
  Estimated tumor volume Average value: 1117.9 mm^3
  Tumor growth inhibition ratio (%): 20.4%
[2]; Day 21
  Estimated tumor volume Average value: 1225.5 mm^3
  Tumor growth inhibition ratio (%): 21.1%
[2]; on Day 21, Dunnet's Multiple Comparison test p<0.001 for the significant effects
  antitumor effect / efficacy (in words): did not exhibit efficacy
Cell strain HCC827GR5 [3]
  sensitivity to alone therapy: not to exhibit strong sensitivity

## C=CC(=O)Nc1cc(Nc2nccc(-c3cn(C)c4ccccc34)n2)c(OC)cc1N(C)CCN(C)C [Osimertinib, osimertinib]
Cell strain PC9
  cell proliferation suppressing activity: Strong cell proliferation suppressing activities
Cell strain PC9AZDR7
  cell proliferation suppressing activity: no cell proliferation suppressing activity was observed
[4]; Day 0
  Estimated tumor volume Average value: 64.2 mm^3
  Tumor growth inhibition ratio (%): 5.3%
[4]; Day 5
  Estimated tumor volume Average value: 249.3 mm^3
  Tumor growth inhibition ratio (%): 6.0%
[4]; Day 8
  Estimated tumor volume Average value: 271.7 mm^3
  Tumor growth inhibition ratio (%): 5.8%
[4]; Day 11
  Estimated tumor volume Average value: 357.2 mm^3
  Tumor growth inhibition ratio (%): 17.9%
[4]; Day 16
  Estimated tumor volume Average value: 533.4 mm^3
  Tumor growth inhibition ratio (%): 6.7%
[4]; Day 18
  Estimated tumor volume Average value: 650.7 mm^3
  Tumor growth inhibition ratio (%): 9.8%
[4]; Day 21
  Estimated tumor volume Average value: 710.6 mm^3
  Tumor growth inhibition ratio (%): 27.7%
